Measured values published in publication PMC8112388 (Inorganic chemistry, 2021).

Target: human serum albumin (HSA) (Homo sapiens, UniProt P02768)
Experiment: proton relaxation enhancement titration
Format: binding
Details: read-out: KD(HSA)

human serum albumin (HSA), sequence (P02768 25-609): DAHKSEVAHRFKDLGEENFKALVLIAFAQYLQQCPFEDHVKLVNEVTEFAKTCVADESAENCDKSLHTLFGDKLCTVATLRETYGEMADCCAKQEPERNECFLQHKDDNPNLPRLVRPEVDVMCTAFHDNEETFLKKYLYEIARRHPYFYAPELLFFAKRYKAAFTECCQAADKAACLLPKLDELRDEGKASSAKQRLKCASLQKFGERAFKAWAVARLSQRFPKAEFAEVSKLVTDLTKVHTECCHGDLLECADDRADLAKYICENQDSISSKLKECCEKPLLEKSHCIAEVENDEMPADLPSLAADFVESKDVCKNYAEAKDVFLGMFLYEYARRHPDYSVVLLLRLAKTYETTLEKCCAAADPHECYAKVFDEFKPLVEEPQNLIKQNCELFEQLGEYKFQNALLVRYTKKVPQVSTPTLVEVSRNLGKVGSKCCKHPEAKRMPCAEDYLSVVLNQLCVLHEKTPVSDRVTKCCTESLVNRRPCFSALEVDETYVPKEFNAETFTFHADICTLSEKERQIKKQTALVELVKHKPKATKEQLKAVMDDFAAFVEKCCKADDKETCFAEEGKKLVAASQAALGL

Substance: MnPyC3A–BPEN [Mn(3)]
- Kd: 28 ± 1 µM
